Experiment: mn = molality of the nth substance listed, in mol/kg
Settings: 100 kPa, Liquid; for mass density: Vibrating tube method; for speed of sound: Frequency=3 MHz, Sing-around technique in a fixed-path interferometer

O [water] + CCCCNC(N)=O
Settings	mass density [kg/m3]
308.15 K, m2 = 0	994.065

CCCNC(N)=O [N-propylurea] + O
Settings	mass density, 288.15 K [kg/m3]	mass density, 293.15 K [kg/m3]	mass density, 298.15 K [kg/m3]	mass density, 303.15 K [kg/m3]	mass density, 308.15 K [kg/m3]	speed of sound, 288.15 K [m/s]	speed of sound, 293.15 K [m/s]	speed of sound, 298.15 K [m/s]	speed of sound, 303.15 K [m/s]	speed of sound, 308.15 K [m/s]
m1 = 0.0494	999.566	998.653	997.48	996.069	994.44	–	–	–	–	–
m1 = 0.079	999.848	998.924	997.74	996.318	994.678	–	–	–	–	–
m1 = 0.0791	–	–	–	–	–	1473.3	1488.9	1502.6	1514.5	1524.8
m1 = 0.1089	1000.13	999.198	998.003	996.573	994.925	1475.8	1491.1	1504.7	1516.4	1526.5
m1 = 0.1484	1000.52	999.564	998.356	996.91	995.249	1479	1494.1	1507.4	1518.9	1528.8
m1 = 0.1983	1000.99	1000.02	998.792	997.329	995.652	1483	1497.8	1510.8	1522	1531.7
m1 = 0.249	1001.49	1000.49	999.244	997.763	996.069	1487.1	1501.6	1514.2	1525.2	1534.6
m1 = 0.3012	1001.99	1000.97	999.704	998.202	996.489	1491.1	1505.3	1517.7	1528.4	1537.5

CCCCNC(N)=O [N-butylurea] + O
Settings	mass density, 288.15 K [kg/m3]	mass density, 293.15 K [kg/m3]	mass density, 298.15 K [kg/m3]	mass density, 303.15 K [kg/m3]	mass density, 308.15 K [kg/m3]	speed of sound, 288.15 K [m/s]	speed of sound, 293.15 K [m/s]	speed of sound, 298.15 K [m/s]	speed of sound, 303.15 K [m/s]	speed of sound, 308.15 K [m/s]
m1 = 0.0486	999.444	998.527	997.349	995.933	994.297	1471.6	1487.2	1501.1	1513.1	1523.5
m1 = 0.0781	999.638	998.707	997.514	996.086	994.438	1474.5	1490	1503.6	1515.4	1525.6
m1 = 0.1078	999.835	998.889	997.683	996.243	994.583	1477.5	1492.7	1506.1	1517.7	1527.6
m1 = 0.1473	1000.1	999.134	997.909	996.448	994.774	1481.3	1496.2	1509.3	1520.6	1530.3
m1 = 0.1974	1000.44	999.45	998.201	996.718	995.022	1486.1	1500.6	1513.3	1524.3	1533.7
m1 = 0.2475	1000.78	999.763	998.489	996.985	995.266	1490.8	1504.9	1517.3	1527.9	1536.9
m1 = 0.2986	1001.14	1000.09	998.789	997.259	995.516	1495.5	1509.2	1521.2	1531.5	1540.2
